According to PubChem BioAssay (NCI):
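The compound was tested at five concentrations on cells cultured in 96-well plates, with a 48-hour exposure period. TGI denotes the concentration required for complete inhibition of growth.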

Legend:
Assay in all cases: NCI anticancer screen, dose series, 48 h
NCI-H226 lung = test system: NCI-H226 lung
OVCAR-3 ovarian = test system: OVCAR-3 ovarian
HT29 colon = test system: HT29 colon
A498 renal = test system: A498 renal
OVCAR-4 ovarian = test system: OVCAR-4 ovarian
SNB-19 CNS = test system: SNB-19 CNS
RPMI-8226 leukemia = test system: RPMI-8226 leukemia
SW-620 colon = test system: SW-620 colon
NCI-H522 lung = test system: NCI-H522 lung
NCI/ADR-RES ovarian = test system: NCI/ADR-RES ovarian
MDA-MB-231 breast = test system: MDA-MB-231 breast
OVCAR-8 ovarian = test system: OVCAR-8 ovarian
786-0 renal = test system: 786-0 renal
TK-10 renal = test system: TK-10 renal
M14 melanoma = test system: M14 melanoma
NCI-H23 lung = test system: NCI-H23 lung
DU-145 prostate = test system: DU-145 prostate
HCT-116 colon = test system: HCT-116 colon
HCC-2998 colon = test system: HCC-2998 colon
K-562 leukemia = test system: K-562 leukemia
SF-268 CNS = test system: SF-268 CNS
SF-295 CNS = test system: SF-295 CNS
LOX IMVI melanoma = test system: LOX IMVI melanoma
SK-MEL-28 melanoma = test system: SK-MEL-28 melanoma
HCT-15 colon = test system: HCT-15 colon
MALME-3M melanoma = test system: MALME-3M melanoma
T-47D breast = test system: T-47D breast
SN12C renal = test system: SN12C renal
SK-MEL-2 melanoma = test system: SK-MEL-2 melanoma
MDA-MB-435 = test system: MDA-MB-435
BT-549 breast = test system: BT-549 breast
MOLT-4 leukemia = test system: MOLT-4 leukemia
COLO 205 colon = test system: COLO 205 colon
U251 CNS = test system: U251 CNS
PC-3 prostate = test system: PC-3 prostate
UACC-62 melanoma = test system: UACC-62 melanoma
CAKI-1 renal = test system: CAKI-1 renal
HL-60(TB) leukemia = test system: HL-60(TB) leukemia
ACHN renal = test system: ACHN renal
HOP-62 NSCLC = test system: HOP-62 NSCLC
A549 NSCLC = test system: A549 NSCLC
KM12 colon = test system: KM12 colon
SF-539 CNS = test system: SF-539 CNS
NCI-H460 lung = test system: NCI-H460 lung
OVCAR-5 ovarian = test system: OVCAR-5 ovarian
SNB-75 CNS = test system: SNB-75 CNS
UACC-257 melanoma = test system: UACC-257 melanoma
HS 578T breast = test system: HS 578T breast
MDA-N = test system: MDA-N
UO-31 renal = test system: UO-31 renal
RXF 393 renal = test system: RXF 393 renal
SK-MEL-5 melanoma = test system: SK-MEL-5 melanoma
MCF7 breast = test system: MCF7 breast
SK-OV-3 ovarian = test system: SK-OV-3 ovarian
IGROV1 ovarian = test system: IGROV1 ovarian
SR leukemia = test system: SR leukemia
CCRF-CEM leukemia = test system: CCRF-CEM leukemia
HOP-92 NSCLC = test system: HOP-92 NSCLC
EKVX NSCLC = test system: EKVX NSCLC

## S=c1[nH]nc(C23CC4CC(CC(C4)C2)C3)n1-c1ccc(Cl)cc1
NCI-H226 lung
  TGI: 55.8 µM
OVCAR-3 ovarian
  TGI: 30.4 µM
HT29 colon
  TGI: 36.8 µM
A498 renal
  TGI: 42.6 µM
OVCAR-4 ovarian
  TGI: > 100 µM
SNB-19 CNS
  TGI: > 100 µM
RPMI-8226 leukemia
  TGI: 66.9 µM
SW-620 colon
  TGI: > 100 µM
NCI-H522 lung
  TGI: 57.9 µM
NCI/ADR-RES ovarian
  TGI: 59.8 µM
MDA-MB-231 breast
  TGI: 56.4 µM
OVCAR-8 ovarian
  TGI: > 100 µM
786-0 renal
  TGI: > 100 µM
TK-10 renal
  TGI: 72.4 µM
M14 melanoma
  TGI: 41.4 µM
NCI-H23 lung
  TGI: > 100 µM
DU-145 prostate
  TGI: 95.9 µM
HCT-116 colon
  TGI: 23.8 µM
HCC-2998 colon
  TGI: 32.9 µM
K-562 leukemia
  TGI: > 100 µM
SF-268 CNS
  TGI: 50.1 µM
SF-295 CNS
  TGI: 58.6 µM
LOX IMVI melanoma
  TGI: 17 µM
SK-MEL-28 melanoma
  TGI: 33.4 µM
HCT-15 colon
  TGI: 23.3 µM
MALME-3M melanoma
  TGI: 63.3 µM
T-47D breast
  TGI: 52 µM
SN12C renal
  TGI: 39.9 µM
SK-MEL-2 melanoma
  TGI: 27.9 µM
MDA-MB-435
  TGI: 55.9 µM
BT-549 breast
  TGI: 29.9 µM
MOLT-4 leukemia
  TGI: 49.4 µM
COLO 205 colon
  TGI: 46 µM
U251 CNS
  TGI: 31.7 µM
PC-3 prostate
  TGI: 93.7 µM
UACC-62 melanoma
  TGI: 25.3 µM
CAKI-1 renal
  TGI: 11.5 µM
HL-60(TB) leukemia
  TGI: 8.41 µM
ACHN renal
  TGI: 73.5 µM
HOP-62 NSCLC
  TGI: 32.7 µM
A549 NSCLC
  TGI: 72.2 µM
KM12 colon
  TGI: 52.9 µM
SF-539 CNS
  TGI: 38 µM
NCI-H460 lung
  TGI: 56 µM
OVCAR-5 ovarian
  TGI: > 100 µM
SNB-75 CNS
  TGI: 72.1 µM
UACC-257 melanoma
  TGI: 71.4 µM
HS 578T breast
  TGI: 52.8 µM
MDA-N
  TGI: 41.1 µM
UO-31 renal
  TGI: 44.7 µM
RXF 393 renal
  TGI: 38.1 µM
SK-MEL-5 melanoma
  TGI: 14.4 µM
MCF7 breast
  TGI: 45.7 µM
SK-OV-3 ovarian
  TGI: 73.9 µM
IGROV1 ovarian
  TGI: 42.9 µM
SR leukemia
  TGI: 16.4 µM
CCRF-CEM leukemia
  TGI: 19.8 µM

## CC(C)c1nc(Cl)nc(Cl)c1Cl
NCI-H226 lung
  TGI: 5.58 µM
OVCAR-3 ovarian
  TGI: 1.74 µM
HOP-92 NSCLC
  TGI: 0.381 µM
HT29 colon
  TGI: 2.52 µM
A498 renal
  TGI: 9.37 µM
OVCAR-4 ovarian
  TGI: 0.751 µM
SNB-19 CNS
  TGI: 3.06 µM
RPMI-8226 leukemia
  TGI: > 100 µM
SW-620 colon
  TGI: 0.858 µM
NCI-H522 lung
  TGI: 1.54 µM
NCI/ADR-RES ovarian
  TGI: > 56.4 µM
MDA-MB-231 breast
  TGI: 5.64 µM
OVCAR-8 ovarian
  TGI: 2.45 µM
786-0 renal
  TGI: 2.26 µM
TK-10 renal
  TGI: 4.28 µM
M14 melanoma
  TGI: 1.83 µM
NCI-H23 lung
  TGI: 3.05 µM
DU-145 prostate
  TGI: 10.5 µM
HCT-116 colon
  TGI: 1.41 µM
HCC-2998 colon
  TGI: 13.1 µM
K-562 leukemia
  TGI: 0.0708 µM
SF-268 CNS
  TGI: 9.12 µM
SF-295 CNS
  TGI: 8.91 µM
LOX IMVI melanoma
  TGI: 0.198 µM
SK-MEL-28 melanoma
  TGI: 2.72 µM
HCT-15 colon
  TGI: 15.7 µM
MALME-3M melanoma
  TGI: 12.9 µM
T-47D breast
  TGI: 13.6 µM
SN12C renal
  TGI: 2.83 µM
MDA-MB-435
  TGI: 2.69 µM
BT-549 breast
  TGI: 0.0335 µM
MOLT-4 leukemia
  TGI: 0.176 µM
COLO 205 colon
  TGI: 13.9 µM
U251 CNS
  TGI: 2.43 µM
PC-3 prostate
  TGI: 4.19 µM
UACC-62 melanoma
  TGI: 2.25 µM
ACHN renal
  TGI: 1.85 µM
HOP-62 NSCLC
  TGI: 4.04 µM
A549 NSCLC
  TGI: 18.6 µM
KM12 colon
  TGI: 3.9 µM
SF-539 CNS
  TGI: 1.82 µM
NCI-H460 lung
  TGI: 16.6 µM
OVCAR-5 ovarian
  TGI: 3.93 µM
SNB-75 CNS
  TGI: 22.7 µM
UACC-257 melanoma
  TGI: 1.91 µM
HS 578T breast
  TGI: 2.91 µM
MDA-N
  TGI: 4.9 µM
UO-31 renal
  TGI: 0.166 µM
RXF 393 renal
  TGI: 1.47 µM
SK-MEL-5 melanoma
  TGI: 6.7 µM
MCF7 breast
  TGI: 6.11 µM
EKVX NSCLC
  TGI: 6.62 µM
SK-OV-3 ovarian
  TGI: 17.6 µM
IGROV1 ovarian
  TGI: 0.423 µM
SR leukemia
  TGI: 0.0209 µM
CCRF-CEM leukemia
  TGI: 0.0358 µM
